system: Rattus norvegicus; assay: Reversal of haloperidol-induced catalepsy in Sprague-Dawley rat at 10 mg/kg, sc after 120 mins relative to control; format: functional; settings: 2 h

SMILES	inhibition in vivo at 10 mg/kg [%]
N#Cc1ccc2nc(NC3CC3)c(N3CCC(Cc4ccc(F)cc4F)CC3)nc2c1	25.1

molecular target: G-protein coupled receptor 6 (Homo sapiens, UniProt P46095); assay: Activity at GPR6 (unknown origin) expressed in CHOK1 cells assessed as inhibition of constitutive cAMP activity incubated for 45 mins by HTRF based cAMP detection assay; format: functional, cell-based, CHO-K1; settings: not given
Sequence (P46095 whole entry): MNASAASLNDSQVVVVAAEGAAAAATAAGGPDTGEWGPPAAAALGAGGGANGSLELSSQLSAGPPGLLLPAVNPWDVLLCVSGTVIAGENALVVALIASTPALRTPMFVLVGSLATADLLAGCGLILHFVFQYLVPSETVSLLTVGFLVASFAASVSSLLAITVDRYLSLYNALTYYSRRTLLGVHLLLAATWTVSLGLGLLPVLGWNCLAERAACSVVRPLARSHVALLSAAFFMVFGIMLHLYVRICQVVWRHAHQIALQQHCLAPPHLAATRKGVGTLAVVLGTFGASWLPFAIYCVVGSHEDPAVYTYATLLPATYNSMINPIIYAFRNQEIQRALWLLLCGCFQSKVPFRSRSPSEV

SMILES	IC50 [µM]
Fc1cnc(Cl)c(CN2CCN(c3nc4ccccc4nc3NC3CC3)CC2)c1	20.4
Cc1ccc(S(=O)(=O)N2CCN(c3nc4cc(C#N)ccc4nc3NC3CC3)CC2)cc1	4.74
N#Cc1cccc2nc(NC3CC3)c(N3CCN(Cc4cc(Cl)ccc4Cl)CC3)nc12	0.65
N#Cc1ccc2nc(NC3CC3)c(N3CCN(S(=O)(=O)c4ccc(OC(F)(F)F)cc4)CC3)nc2c1	4.29
O=S(=O)(c1ccccc1)N1CCN(c2nc3cc(F)ccc3nc2NC2CC2)CC1	9.44
N#Cc1cccc(S(=O)(=O)N2CCN(c3nc4cc(C#N)ccc4nc3NC3CC3)CC2)c1	2.54
O=C(c1ccccc1Br)C1CCN(c2nc3cnccc3nc2NC2CC2)CC1	0.078
Cc1nnc(Nc2nc3ccccc3nc2N2CCN(Cc3cc(Cl)ccc3Cl)CC2)nc1C	17.8
Clc1ccc(Cl)c(CN2CCN(c3nc4ccccc4nc3Nc3cccnn3)CC2)c1	1.67
N#Cc1cccc(C(=O)C2CCN(c3nc4cnccc4nc3NC3CC3)CC2)c1	7.21
Fc1cc(F)c(CN2CCN(c3nc4cnccc4nc3NC3CC3)CC2)cc1F	0.05
Clc1ccc(Cl)c(CN2CCN(c3nc4ccncc4nc3NC3CC3)CC2)c1	0.056
O=S(=O)(c1ccccc1)N1CCN(c2nc3ccccc3nc2Nc2cccnc2)CC1	4.63
O=C(c1cc(Cl)ccc1Cl)N1CCN(c2nc3ccccc3nc2NC2CC2)CC1	6.64
Cc1c(Cl)cc(F)cc1S(=O)(=O)N1CCN(c2nc3cc(C#N)ccc3nc2NC2CC2)CC1	0.96
COc1ccc(CN2CCN(c3nc4cnc(C(=O)N(C)C)cc4nc3NC3CC3)CC2)c(F)c1	0.939
Cc1cccc(CN2CCN(c3nc4ccccc4nc3NC3CC3)CC2)c1C	3.64
Fc1cc2nc(NC3CC3)c(N3CCN(Cc4cc(Cl)ccc4Cl)CC3)nc2cc1F	0.8
COc1ccc(CN2CCN(c3nc4cnc(N5CCOCC5)cc4nc3NC3CC3)CC2)c(F)c1	0.092
N#Cc1ccc2nc(NC3CC3)c(N3CCN(S(=O)(=O)c4ccc(Cl)cc4)CC3)nc2c1	0.57
O=C(c1ccsc1)C1CCN(c2nc3cnccc3nc2NC2CC2)CC1	2.29
COc1ccc(OC2CCN(c3nc4cnccc4nc3NC3CC3)CC2)cc1	0.19
O=C(c1cccs1)C1CCN(c2nc3cnccc3nc2NC2CC2)CC1	6.75
COc1ccc(OC2CCN(c3nc4ccncc4nc3NC3CC3)CC2)c(F)c1	0.044
N#Cc1ccc2nc(N3CCN(Cc4cc(Cl)ccc4Cl)CC3)c(Nc3cccnc3)nc2c1	0.44
Cc1nccc2nc(NC3CC3)c(N3CCC(Cn4ccc(F)cc4=O)CC3)nc12	0.38
Clc1ccc(Cl)c(CN2CCN(c3nc4ccccc4nc3Nc3ccccn3)CC2)c1	3.29
CCOc1ccc(OC2CCN(c3nc4cnccc4nc3NC3CC3)CC2)cc1	1.02
Cc1cc(C(=O)N2CCN(c3nc4ccccc4nc3NC3CC3)CC2)ccc1Cl	0.72

More lines, now with the values ahead:

IC50 [µM]	SMILES
0.2	O=C(c1c(F)cc(Cl)cc1F)C1CCN(c2nc3cnccc3nc2NC2CC2)CC1
0.12	Fc1ccc(F)c(CN2CCN(c3nc4cnccc4nc3NC3CC3)CC2)c1
0.538	CC(C)(C)Nc1nc2cc(C#N)ncc2nc1N1CCC(Oc2ccc(F)cc2F)CC1
0.002	Cc1nccc2nc(NC3CC3)c(N3CCC(Cc4ccc(F)cc4F)CC3)nc12
0.04	CC(C)Nc1nc2cc(C(=O)N(C)C)ncc2nc1N1CCN(Cc2ccc(F)cc2F)CC1
3.9	O=C(c1c(Cl)ccc(F)c1F)C1CCN(c2nc3cnccc3nc2NC2CC2)CC1
0.007	O=C(c1nccc2nc(NC3CC3)c(N3CCC([C@@H](F)c4ccc(F)cc4F)CC3)nc12)N1CCOCC1
0.16	N#Cc1ccc2nc(NCCC(F)(F)F)c(N3CCC(Oc4ccc(F)cc4F)CC3)nc2c1
0.006	CC(C)Nc1nc2cnncc2nc1N1CCC(C(F)c2ccc(F)cc2F)CC1 (stereo unspecified)
0.014	Fc1ccc(OC2CCN(c3nc4ccncc4nc3NC3CCC3)CC2)c(F)c1
0.062	O=C(c1cc(F)ccc1Cl)C1CCN(c2nc3cnccc3nc2NC2CC2)CC1
0.23	Fc1ccc(CN2CCN(c3nc4ccncc4nc3NCC(F)F)CC2)c(F)c1
0.072	Fc1ccc(CC2CCN(c3nc4cc(F)ccc4nc3NC3CC3)CC2)c(F)c1
0.021	CC[C@H](C)Nc1nc2cnncc2nc1N1CCC(Oc2ccc(OC)cc2F)CC1
0.02	Fc1ccc(F)c(C(F)C2CCN(c3nc4cnccc4nc3NC3CC3)CC2)c1 (stereo unspecified)
0.015	N#Cc1cc2nc(NC3CC3)c(N3CCC(Cc4ccc(F)cc4F)CC3)nc2cn1
0.054	Oc1ccc(OC2CCN(c3nc4ccncc4nc3NC3CC3)CC2)c(F)c1
0.035	O=C(c1cc(Cl)ccc1F)C1CCN(c2nc3cnccc3nc2NC2CC2)CC1

IC50 [µM]	SMILES
0.064	N#Cc1ccc2nc(NC3CC3)c(N3CCC(Cc4ccc(F)cc4F)CC3)nc2c1
8.39	O=C(c1ccc(F)c(F)c1)C1CCN(c2nc3cnccc3nc2NC2CC2)CC1
0.39	N#Cc1ccc2nc(Nc3cccnc3)c(N3CCC(Cc4ccc(F)cc4F)CC3)nc2c1
0.044	COc1cccc(CN2CCN(c3nc4cnncc4nc3NC(C)C)CC2)c1
0.045	Cc1nccc2nc(NC3CC3)c(N3CCC(C(F)(F)c4cc(F)ccc4F)CC3)nc12
0.012	COc1ccc(OC2CCN(c3nc4ccncc4nc3NC(C)C)CC2)c(F)c1
0.17	Fc1cc(F)c(OC2CCN(c3nc4cnccc4nc3NC3CC3)CC2)c(F)c1
0.046	Fc1ccc(Cl)cc1C(F)(F)C1CCN(c2nc3cnccc3nc2NC2CC2)CC1
0.011	N#Cc1cc2nc(NC3CC3)c(N3CCC([C@H](F)c4ccc(F)cc4F)CC3)nc2cn1
0.006	CC(C)Nc1nc2cc(C(=O)N(C)C)ncc2nc1N1CCC(Oc2ccc(Cl)cc2F)CC1
0.014	CC(C)Nc1nc2cnncc2nc1N1CCC([C@@H](F)c2ccc(F)cc2F)CC1
0.054	COc1ccc(C(=O)C2CCN(c3nc4cnncc4nc3NC(C)C)CC2)c(F)c1
0.026	COc1ccc(CC2CCN(c3nc4cnc(C#N)cc4nc3NC(C)C)CC2)c(F)c1
0.071	N#Cc1ccc2nc(NCC(F)F)c(N3CCC(Cc4ccc(F)cc4F)CC3)nc2c1
0.02	Cc1cc2nc(NC3CC3)c(N3CCC(Cc4ccc(F)cc4F)CC3)nc2cn1
0.01	CN(C)C(=O)c1cc2nc(NC3CC3)c(N3CCC([C@H](F)c4ccc(F)cc4F)CC3)nc2cn1
0.008	CN(C)C(=O)c1cc2nc(NC3CC3)c(N3CCC([C@@H](F)c4ccc(F)cc4F)CC3)nc2cn1

system: Rattus norvegicus; assay: Reversal of haloperidol-induced catalepsy in Sprague-Dawley rat at 10 mg/kg, sc after 30 mins relative to control; format: functional; settings: 0.5 h

SMILES	inhibition in vivo at 10 mg/kg [%]
N#Cc1ccc2nc(NC3CC3)c(N3CCC(Cc4ccc(F)cc4F)CC3)nc2c1	36.9

Reference: ChEMBL document CHEMBL3714749, “Quinoxaline derivatives as gpr6 modulators” (2014)
